Laboratory results published in patent US20250197351A1, “C4-CARBOXYLIC ACID-S[…] DERIVATIVES AND METHODS OF USING” (priority 2022, published 2025).
“And” between values parts separate entries of the source, which are not always exact repeats. Equal values may be shown once.

What was measured:
[1] = target: T1, 5-HT2A receptor (5-HT2AR) (Mus musculus, UniProt P35363); assay: Drug-induced Head Twitch Response (HTR); assay type: in vivo; settings: 1 mg/kg i.p., 15-to-30-minute window post-drug, relative to vehicle
T1 construct: host or cells: C57BL/6 mice, in vivo (neuronal receptor)

5-HT1A receptor = target: T2, 5-HT1A receptor (Homo sapiens, UniProt P08908); assay: cAMP-Glo assay of 5-HT1A receptor modulation, CHO-K1/5-HT1A/Ga15 (+5-HT1A) vs CHO-K1/Ga15 (−5-HT1A) cells; assay type: cell-based; settings: +5-HT1A vs −5-HT1A CHO-K1 cells; 4 μM forskolin; increasing ligand concentration
T2 construct: host or cells: CHO-K1 (co-expressing Ga15)
T2 sequence (P08908 1-422): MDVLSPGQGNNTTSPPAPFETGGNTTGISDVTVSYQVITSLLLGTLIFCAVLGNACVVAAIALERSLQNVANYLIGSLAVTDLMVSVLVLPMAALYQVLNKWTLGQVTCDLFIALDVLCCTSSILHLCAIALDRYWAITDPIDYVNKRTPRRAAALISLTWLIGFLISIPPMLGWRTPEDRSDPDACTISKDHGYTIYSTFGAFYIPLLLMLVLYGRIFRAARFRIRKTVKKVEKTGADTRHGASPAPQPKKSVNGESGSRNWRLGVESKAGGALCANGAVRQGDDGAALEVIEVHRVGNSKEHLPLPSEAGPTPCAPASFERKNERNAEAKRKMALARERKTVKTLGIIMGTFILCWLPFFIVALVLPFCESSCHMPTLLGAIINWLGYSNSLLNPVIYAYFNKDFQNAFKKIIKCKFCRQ

[2] = Mouse pharmacokinetic (PK) study, parent compound and psilocin metabolite in plasma; assay type: in vivo; settings: for Plasma concentration of psilocin: individual mice, LLOQ 0.2 ng/mL
Source text: (§1) Briefly, the procedure was as follows. […] 19, 2022.

[3] = Dosing solution concentration by LC-MS (nominal vs measured); assay type: physicochemical
Protocol: as §1
Pharmacokinetic (PK) evaluations were performed in the same manner as described in Example 1, except compound C(IV) was used in place of compound C(V). […] Thus, only psilocin PK analysis was performed. […] Table 46 summarizes these “measured” concentrations along with corresponding “nominal” concentrations for each dosing solution. Results for psilocin PK following C(IV) administration are found in Tables 47A-47B (0.293 mg/kg IV dose), Tables 48A-48B (0.275 mg/kg oral dose), Tables 49A-49B (0.789 mg/kg oral dose), Tables 50A-50B (2.52 mg/kg oral dose), Table 51 (comparative summary for IV data), Table 52 (comparative summary for oral data), Table 53A (psilocin exposure) and FIGS. 10H (i) and 10H (ii).

T1 sequence (P35363 whole entry): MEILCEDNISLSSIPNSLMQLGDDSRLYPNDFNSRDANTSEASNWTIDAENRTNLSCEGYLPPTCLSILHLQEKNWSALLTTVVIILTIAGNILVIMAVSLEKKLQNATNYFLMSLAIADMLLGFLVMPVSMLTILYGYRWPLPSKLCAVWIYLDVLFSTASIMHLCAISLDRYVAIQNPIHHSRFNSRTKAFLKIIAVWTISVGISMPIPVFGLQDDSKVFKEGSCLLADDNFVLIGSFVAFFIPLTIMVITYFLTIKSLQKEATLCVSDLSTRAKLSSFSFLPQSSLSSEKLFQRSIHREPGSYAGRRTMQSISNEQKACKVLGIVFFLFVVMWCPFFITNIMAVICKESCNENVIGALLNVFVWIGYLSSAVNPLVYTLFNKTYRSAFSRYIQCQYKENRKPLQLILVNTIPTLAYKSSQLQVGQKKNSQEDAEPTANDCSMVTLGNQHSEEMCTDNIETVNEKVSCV

## CN(C)CCc1c[nH]c2cccc(OC(=O)CC3CC3)c12 [C(IV)]
[1]
  Head Twitch Response (HTR) incidence: Elevated incidences of HTR
5-HT1A receptor
  5-HT1A receptor modulation (reduction of forskolin-induced cAMP): significant receptor modulation
[2]; 0.275 mg/kg oral C(IV), 4 h
  Plasma concentration of psilocin: BLQ
[2]; 0.275 mg/kg oral C(IV), 6 h
  Plasma concentration of psilocin: BLQ
[2]; 0.275 mg/kg oral C(IV), 8 h
  Plasma concentration of psilocin: BLQ
[2]; 0.275 mg/kg oral C(IV), 24 h
  Plasma concentration of psilocin: No Peak
[2]; 0.293 mg/kg i.v. C(IV), 8 h
  Plasma concentration of psilocin: No Peak and BLQ (2×)
[2]; 0.789 mg/kg oral C(IV), 8 h
  Plasma concentration of psilocin: BLQ
[2]; 0.789 mg/kg oral C(IV), 24 h
  Plasma concentration of psilocin: No Peak
[2]; 2.52 mg/kg oral C(IV), 24 h
  Plasma concentration of psilocin: BLQ and No Peak (2×)
[2]; mouse, any animals at any dose (i.v. and oral)
  Detection of parent compound in plasma: not detectable in any animals at any dose
[3]
  Stability in dosing solutions: compound instability in dosing solutions
